Test results from ChEMBL document CHEMBL1126955, “Substituted thiopyrano[2,3,4-c,d]indoles as potent, selective, and orally active inhibitors of 5-lipoxygenase. Synthesis and biological evaluation of L-691,816” (J Med Chem, 1993).

Experiments:
[1] = target: T1, Polyunsaturated fatty acid 5-lipoxygenase (Rattus norvegicus, UniProt P12527); experiment: In vitro test for inhibition of 5-lipoxygenase in cell-free preparations from rat PMN leukocytes
T1 sequence (P12527 whole entry): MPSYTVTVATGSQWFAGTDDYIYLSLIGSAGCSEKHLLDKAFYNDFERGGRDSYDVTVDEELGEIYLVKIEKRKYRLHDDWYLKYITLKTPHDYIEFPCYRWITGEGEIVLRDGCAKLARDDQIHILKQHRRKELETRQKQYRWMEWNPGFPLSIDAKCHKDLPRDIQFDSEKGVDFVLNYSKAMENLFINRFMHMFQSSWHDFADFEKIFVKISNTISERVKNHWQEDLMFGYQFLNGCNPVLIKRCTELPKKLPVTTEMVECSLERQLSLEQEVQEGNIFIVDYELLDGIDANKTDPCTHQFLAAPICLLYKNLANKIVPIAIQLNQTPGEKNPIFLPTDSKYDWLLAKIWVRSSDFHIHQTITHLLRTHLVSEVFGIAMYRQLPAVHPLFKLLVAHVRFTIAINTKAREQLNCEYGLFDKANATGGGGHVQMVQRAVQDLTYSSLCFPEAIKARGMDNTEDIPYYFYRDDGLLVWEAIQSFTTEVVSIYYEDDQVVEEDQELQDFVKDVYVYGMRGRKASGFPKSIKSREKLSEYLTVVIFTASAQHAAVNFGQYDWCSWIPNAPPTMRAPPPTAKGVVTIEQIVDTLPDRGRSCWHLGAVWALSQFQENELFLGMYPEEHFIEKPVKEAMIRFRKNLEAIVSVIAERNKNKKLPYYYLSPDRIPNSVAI

[2] = target: T2, Polyunsaturated fatty acid 5-lipoxygenase (Homo sapiens, UniProt P09917); experiment: In vitro inhibition of LTB4 biosynthesis in [Ca(2+)]-ionophore-activated human polymorphonuclear leukocytes; assay type: functional
T2 sequence (P09917 whole entry): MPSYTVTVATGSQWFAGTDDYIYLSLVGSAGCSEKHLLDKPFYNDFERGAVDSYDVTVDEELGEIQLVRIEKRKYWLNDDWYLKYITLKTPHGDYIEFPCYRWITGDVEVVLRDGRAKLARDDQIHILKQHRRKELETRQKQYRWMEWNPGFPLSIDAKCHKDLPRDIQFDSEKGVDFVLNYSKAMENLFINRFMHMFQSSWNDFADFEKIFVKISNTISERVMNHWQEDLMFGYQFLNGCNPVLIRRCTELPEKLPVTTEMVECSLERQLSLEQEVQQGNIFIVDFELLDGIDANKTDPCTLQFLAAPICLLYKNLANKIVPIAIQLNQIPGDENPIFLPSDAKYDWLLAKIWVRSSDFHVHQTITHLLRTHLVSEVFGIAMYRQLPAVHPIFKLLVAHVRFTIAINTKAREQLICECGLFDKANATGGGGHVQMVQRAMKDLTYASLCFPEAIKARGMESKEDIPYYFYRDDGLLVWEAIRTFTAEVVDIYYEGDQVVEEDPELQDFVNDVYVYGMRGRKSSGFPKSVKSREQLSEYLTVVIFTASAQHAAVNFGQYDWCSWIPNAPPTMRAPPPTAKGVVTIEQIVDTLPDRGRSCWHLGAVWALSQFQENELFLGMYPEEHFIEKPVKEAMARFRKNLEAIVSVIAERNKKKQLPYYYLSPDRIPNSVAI

Homo sapiens [3] = species: Homo sapiens; experiment: Tested in vitro for the inhibition of LTB4 biosynthesis in [Ca(2+)]-ionophore-activated human polymorphonuclear leukocytes; (Result of a single titration); assay type: functional
[4] = target: T3, Arachidonate 5-lipoxygenase-activating protein (Homo sapiens, UniProt P20292); experiment: Tested for inhibition of leukotriene biosynthesis by binding to 5-lipoxygenase activating protein
T3 sequence (P20292 whole entry): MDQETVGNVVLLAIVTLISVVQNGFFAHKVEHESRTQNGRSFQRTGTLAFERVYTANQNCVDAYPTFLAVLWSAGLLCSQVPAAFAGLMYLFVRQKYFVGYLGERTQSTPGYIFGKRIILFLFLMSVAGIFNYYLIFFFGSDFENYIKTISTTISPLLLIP

[5] = Peak concentration in rat plasma was determined; assay type: ADME, organism-based
[6] = Bioavailability in rat (dose 20 mg/kg p.o. in 1% methocel, and 5 mg/kg i.v. in PEG400); assay type: ADME, organism-based; conditions: in vivo, po
Rattus norvegicus = experiment: Tested for percent inhibition of dyspnea duration in hyperreactive rat model after peroral administration of 5 mg/kg; assay type: functional; conditions: route oral
[7] = Maximum time taken for compound to reach peak concentration in rat plasma; assay type: ADME, organism-based
[8] = target: T4, Polyunsaturated fatty acid 5-lipoxygenase (Rattus norvegicus) (UniProt P12527); experiment: Tested in vitro for the inhibition of 5-lipoxygenase in cell-free preparations from rat PMN leukocytes; conditions: concentration not given here
T4 sequence (whole entry): T1 sequence (P12527 whole entry)

Homo sapiens [9] = species: Homo sapiens; experiment: Tested in vitro for the inhibition of LTB4 biosynthesis in [Ca(2+)]-ionophore-activated human polymorphonuclear leukocytes (Result of a single titration); assay type: functional

IC50 [1] [nM]	IC50 [2] [nM]	Structure (SMILES)	also measured
8000		C[C@H]1Cc2c(OCc3ccc(-c4ccccc4)cn3)ccc3c2c(c(CC(C)(C)C(=O)O)n3Cc2ccc(Cl)cc2)[S+]1[O-] (stereo partly drawn)	IC50 (Homo sapiens [3]): > 2000 nM
	300	CC1Cc2c(OCc3ccc(-c4ccccc4)cn3)ccc3c2c(c(CC(C)(C)C(=O)O)n3C)S1 (stereo not drawn)	
	500	CC1Cc2c(OCc3ccc(-c4ccccc4)cn3)ccc3[nH]c(CC(C)(C)C(=O)O)c(c23)S1 (stereo not drawn)	inhibition [8]: 23%
20	12	CC1Cc2c(OCc3ccc(-c4ccccc4)cn3)ccc3c2c(c(CC(C)(C)CC(=O)O)n3Cc2ccc(Cl)cc2)S1 (stereo not drawn)	Cmax [5]: 4 µM; bioavailability [6]: 27%; inhibition in vivo at 5 mg/kg (Rattus norvegicus): 54%; Tmax [7]: 2 h
140	38	CC1Cc2c(OCc3ccc(-c4ccccc4)cn3)ccc3c2c(c(CCC(=O)O)n3Cc2ccc(Cl)cc2)S1 (stereo not drawn)	
40	28	COc1ccc(Cn2c(CC(C)(C)C(=O)O)c3c4c(c(OCc5ccc(-c6ccccc6)cn5)ccc42)CC(C)S3)cc1 (stereo not drawn)	
200	100	CC(C)(Cc1c2c3c(c(OCc4ccc(-c5ccccc5)cn4)ccc3n1Cc1ccc(Cl)cc1)CCS2)C(=O)O	
	160	CC(C)(Cc1c2c3c(c(OCc4ccc(-c5ccccc5)cn4)ccc3n1Cc1ccc(Cl)cc1)CCCS2)C(=O)O	inhibition [8]: 20%
130	19	CC1Cc2c(OCc3ccc(-c4ccccc4)cn3)ccc3c2c(c(CC(C)(C)CCC(=O)O)n3Cc2ccc(Cl)cc2)S1 (stereo not drawn)	
30	16	CC1Cc2c(OCc3ccc(-c4ccccc4)cn3)ccc3c2c(c(CC(C)(C)C(=O)O)n3Cc2ccc(-c3ccccc3)cn2)S1 (stereo not drawn)	
140		CC1Cc2c(OCc3ccc(-c4ccccc4)cn3)ccc3c2c(c(CC(C)(C)C(=O)O)n3C(=O)c2ccccc2)S1 (stereo not drawn)	IC50 (Homo sapiens [3]): 60 nM
1000	165	CC1Cc2c(OCc3ccc(-c4ccccc4)cc3)ccc3c2c(c(CC(C)(C)C(=O)O)n3Cc2ccc(Cl)cc2)S1 (stereo not drawn)	
130	33	CCC1Cc2c(OCc3ccc(-c4ccccc4)cn3)ccc3c2c(c(CC(C)(C)C(=O)O)n3Cc2ccc(Cl)cc2)S1 (stereo not drawn)	
2000	97	CC1Cc2c(OCc3ccc(-c4ccccc4)cn3)ccc3c2c(c(C(=O)O)n3Cc2ccc(Cl)cc2)S1 (stereo not drawn)	

Continued, molecule first:

Structure (SMILES)	IC50 [1] [nM]	IC50 [2] [nM]	also measured
CCCCc1ccc(COc2ccc3c4c2CC(C)Sc4c(CC(C)(C)C(=O)O)n3Cc2ccc(Cl)cc2)nc1 (stereo not drawn)	500	42	
CSc1c(CC(C)(C)C(=O)O)n(Cc2ccc(Cl)cc2)c2ccc(OCc3ccc(-c4ccccc4)cn3)cc12	600	170	
COc1ccc(COc2ccc3c4c2CC(C)Sc4c(CC(C)(C)C(=O)O)n3Cc2ccc(Cl)cc2)nc1 (stereo not drawn)	400	12	IC50 [4]: 40 nM
CC1Cc2c(OCc3ccc(-c4ccccc4)cn3)ccc3c2c(c(CC(C)(C)CC(=O)NS(C)(=O)=O)n3Cc2ccc(Cl)cc2)S1 (stereo not drawn)	36	11	Cmax [5]: 12 µM; bioavailability [6]: 45%; inhibition in vivo at 5 mg/kg (Rattus norvegicus): 44%; Tmax [7]: 4 h
CC1Cc2c(OCc3ccc(-c4ccccc4)cn3)ccc3c2c(c(CC(C)(C)CC(=O)NS(=O)(=O)C(F)(F)F)n3Cc2ccc(Cl)cc2)S1 (stereo not drawn)	67	125	
CCCCn1c(CC(C)(C)C(=O)O)c2c3c(c(OCc4ccc(-c5ccccc5)cn4)ccc31)CC(C)S2 (stereo not drawn)	130	95	
CC1Cc2c(OCCc3ccc(-c4ccccc4)cn3)ccc3c2c(c(CC(C)(C)Cc2nnn[nH]2)n3Cc2ccc(Cl)cc2)S1 (stereo not drawn)	1200	46	
COc1cccc(Cn2c(CC(C)(C)C(=O)O)c3c4c(c(OCc5ccc(-c6ccccc6)cn5)ccc42)CC(C)S3)c1 (stereo not drawn)	40	28	
CC1Cc2c(OCc3cccc(-c4ccccc4)n3)ccc3c2c(c(CC(C)(C)C(=O)O)n3Cc2ccc(Cl)cc2)S1 (stereo not drawn)	2500	27	
CC1Cc2c(OCc3ccc(C#N)cn3)ccc3c2c(c(CC(C)(C)C(=O)O)n3Cc2ccc(Cl)cc2)S1 (stereo not drawn)	350	66	
CC1Cc2c(OCc3ccc(-c4ccccc4)cn3)ccc3c2c(c(CC(C)(C)C(=O)O)n3Cc2ccc(Cl)cc2)S1(=O)=O (stereo not drawn)	320	210	
CC1(C)Cc2c(OCc3ccc(-c4ccccc4)cn3)ccc3c2c(c(CC(C)(C)C(=O)O)n3Cc2ccc(Cl)cc2)S1	3000	88	
CC1Cc2c(OCc3ccc(-c4ccccc4)cn3)ccc3c2c(c(CC(C)(C)CC(=O)N(C)O)n3Cc2ccc(Cl)cc2)S1 (stereo not drawn)			IC50 (Homo sapiens [3]): 500 nM
CC1Cc2c(OCc3ccc(-c4ccccc4)cn3)ccc3c2c(c(CC(C)(C)C(=O)O)n3CC2CCCCC2)S1 (stereo not drawn)	35	33	
CC1Cc2c(OCc3cc4ccccc4cn3)ccc3c2c(c(CC(C)(C)C(=O)O)n3Cc2ccc(Cl)cc2)S1 (stereo not drawn)	400	20	IC50 [4]: 390 nM
CC1Cc2c(OCc3ccc(C(=O)O)cn3)ccc3c2c(c(CC(C)(C)C(=O)O)n3Cc2ccc(Cl)cc2)S1 (stereo not drawn)	> 2000		IC50 (Homo sapiens [9]): > 2000 nM
CC1Cc2c(OCc3ccc(-c4ccccc4)cn3)ccc3c2c(c(CC(=O)O)n3Cc2ccc(Cl)cc2)S1 (stereo not drawn)	200	37	
CC1Cc2c(OCc3ccc(-c4ccccc4)cn3)ccc3c2c(c(CC(C)(C)CC(N)=O)n3Cc2ccc(Cl)cc2)S1 (stereo not drawn)			IC50 (Homo sapiens [3]): 1500 nM
CC1Cc2c(OCc3ccc(-c4ccccc4)cn3)ccc3c2c(c(CC(C)(C)C(=O)O)n3Cc2ccccn2)S1 (stereo not drawn)	45	110	
CC1Cc2c(OCc3cccs3)ccc3c2c(c(CC(C)(C)C(=O)O)n3Cc2ccc(Cl)cc2)S1 (stereo not drawn)	2000	28	
C[C@@H]1Cc2c(OCc3ccc(-c4ccccc4)cn3)ccc3c2c(c(CC(C)(C)C(=O)O)n3Cc2ccc(Cl)cc2)[S+]1[O-] (stereo partly drawn)	330	830	
CC1Cc2c(OCc3ccc(-c4ccccc4)cn3)ccc3c2c(c(CC(C)(C)C(=O)O)n3Cc2ccc(Cl)cc2)S1 (stereo not drawn)		22	
CC1Cc2c(SCc3ccc(-c4ccccc4)cn3)ccc3c2c(c(CC(C)(C)Cc2nnn[nH]2)n3Cc2ccc(Cl)cc2)S1 (stereo not drawn)	120	11	
CC1Cc2c(OCc3ccc(-c4ccccc4)cn3)ccc3c2c(c(CC(C)(C)C(=O)O)n3CCCc2ccccc2)S1 (stereo not drawn)	35	23	
CC1Cc2c(OCc3ccc(-c4ccccc4)cn3)ccc3c2c(c(CCC(C)(C)C(=O)O)n3Cc2ccc(Cl)cc2)S1 (stereo not drawn)	330	23	
CC1Cc2c(OCc3cc(-c4ccccc4)ccn3)ccc3c2c(c(CC(C)(C)C(=O)O)n3Cc2ccc(Cl)cc2)S1 (stereo not drawn)	2000	80	
CC1Cc2c(OCc3ccc4ccccc4n3)ccc3c2c(c(CC(C)(C)C(=O)O)n3Cc2ccc(Cl)cc2)S1 (stereo not drawn)	600	3	
CC1Cc2c(OCc3ccc(-c4ccccc4)cn3)ccc3c2c(c(CC(C)(C)C(=O)O)n3Cc2ccc(S(C)(=O)=O)cc2)S1 (stereo not drawn)	350	420	
CC1Cc2c(OCc3ccccn3)ccc3c2c(c(CC(C)(C)C(=O)O)n3Cc2ccc(Cl)cc2)S1 (stereo not drawn)	630	35	IC50 [4]: 110 nM
